Test results from patent US8871934B2, “Fluorene compound and pharmaceutical use thereof” (Japan Tobacco Inc., priority 2008, dated 2014).
Like-named read-outs stand apart in the source and are kept apart here.

Target: human PDHK2 (hPDHK2) (Homo sapiens (Human), UniProt Q15119)
Assay: Inhibitory action of PDHK activity in vitro (kinase reaction, residual PDH activity measured)
Format: biochemical
[1] = PDHK inhibitory activity, class symbol of IC50
[2] = read-out: PDHK inhibitory activity IC50
[3] = class symbol of IC50, read-out: PDHK inhibitory activity
[4] = PDHK inhibitory activity (class symbol)

Row | SMILES | IC50 [1] [nM] | IC50 [2] [nM] | IC50 [3] [nM] | IC50 [4] [nM]
1 | O=C(COc1cc(-c2cnn(CCO)c2)c2c(c1)C(O)(C(F)(F)F)c1ccccc1-2)N1CC(O)C1 (centres unmarked) [compound 497] | < 100 | 31 | – | –
2 | CC(=O)N(C)CCCOc1ccc2c(c1)C(O)(C(F)(F)F)c1ccccc1-2 (centres unmarked) [compound 334] | 100 to 1000 | 674 | – | –
3 | O=C(O)CCn1cc(-c2ccc3c(c2)C(O)(C(F)(F)F)c2cccc(CO)c2-3)cn1 (centres unmarked) [compound 600] | – | > 1000 | > 1000 | –
4 | NC(=O)c1ccc2c(c1)-c1ccccc1C2(O)C(F)(F)F (centres unmarked) [compound 42] | > 1000 | 5560 | – | –
5 | O[C@@H]1CCN(CCOc2ccc3c(c2)C(O)(C(F)(F)F)c2ccccc2-3)C1 (some centres unmarked) [compound 390] | 100 to 1000 | 954 | – | –
6 | COC(=O)c1cc(C)c2c(c1)C(O)(C(F)(F)F)c1ccccc1-2 (centres unmarked) [compound 45] | 100 to 1000 | 247 | – | –
7 | CC(C)n1cc(-c2cc(C(N)=O)c3c(c2)C(O)(C(F)(F)F)c2ccccc2-3)cn1 (centres unmarked) [compound 528] | < 100 | 49 | – | –
8 | CC(=O)NCCOc1cc(-c2cnn(C)c2)c2c(c1)C(O)(C(F)(F)F)c1ccccc1-2 (centres unmarked) [compound 435] | < 100 | 39 | – | –
9 | OC1(C(F)(F)F)c2ccccc2-c2c(-c3cncnc3)cccc21 (centres unmarked) [compound 300] | 100 to 1000 | 114 | – | –
10 | Cn1cc(-c2cc(OCCCCO)cc3c2-c2ccccc2C3(O)C(F)(F)F)cn1 (centres unmarked) [compound 426] | < 100 | 24 | – | –
11 | OC1(C(F)(F)F)c2ccccc2-c2c(-c3cn[nH]c3)cccc21 (centres unmarked) [compound 277] | 100 to 1000 | 125 | – | –
12 | NCc1cccc2c1-c1ccccc1C2(O)C(F)(F)F (centres unmarked) [compound 336] | > 1000 | > 10000 | – | –
13 | OCCn1cc(-c2cc(CO)cc3c2-c2ccccc2C3(O)C(F)(F)F)cn1 (centres unmarked) [compound 620] | – | 65 | – | < 100
14 | CCOC(=O)c1ccccc1-c1ccc2c(c1)C(O)(C(F)(F)F)c1ccccc1-2 (centres unmarked) [compound 173] | > 1000 | > 10000 | – | –
15 | C#Cc1cc(-c2cnn(C)c2)cc2c1-c1ccccc1C2(O)C(F)(F)F (centres unmarked) [compound 578] | < 100 | 78 | – | –
16 | CCCNC(=O)c1ccc2c(c1)C(O)(C(F)(F)F)c1ccccc1-2 (centres unmarked) [compound 316] | > 1000 | 4480 | – | –
17 | CCn1cc(-c2ccc3c(c2)C(O)(C(F)(F)F)c2cccc(CO)c2-3)cn1 (centres unmarked) [compound 597] | – | > 1000 | > 1000 | –

Row | SMILES | IC50 [1] [nM] | IC50 [2] [nM] | IC50 [3] [nM] | IC50 [4] [nM]
18 | O=C1CCCN1CCOc1cc(-c2cnn(CCO)c2)c2c(c1)C(O)(C(F)(F)F)c1ccccc1-2 (centres unmarked) [compound 484] | < 100 | 24 | – | –
19 | OC1(C(F)(F)F)c2ccccc2-c2c(-c3cnco3)cccc21 (centres unmarked) [compound 92] | 100 to 1000 | 405 | – | –
20 | N#Cc1cccc(-c2ccc3c(c2)C(O)(C(F)(F)F)c2ccccc2-3)c1 (centres unmarked) [compound 214] | 100 to 1000 | 345 | – | –
21 | CC(=O)c1cc(OCCN2CCCC2=O)cc2c1-c1ccccc1C2(O)C(F)(F)F (centres unmarked) [compound 599] | < 100 | 33 | – | –
22 | OC1(C(F)(F)F)c2ccccc2-c2c(-c3cnn(Cc4ccccc4)c3)cccc21 (centres unmarked) [compound 466] | < 100 | 55 | – | –
23 | CNC(=O)c1ccccc1-c1ccc2c(c1)C(O)(C(F)(F)F)c1ccccc1-2 (centres unmarked) [compound 183] | > 1000 | > 10000 | – | –
24 | CN(C)C(=O)c1cc(-c2cnn(C)c2)c2c(c1)C(O)(C(F)(F)F)c1ccccc1-2 (centres unmarked) [compound 354] | < 100 | 71 | – | –
25 | OC1(C(F)(F)F)c2ccccc2-c2ccc(F)cc21 (centres unmarked) [compound 4] | > 1000 | 2290 | – | –
26 | Cc1nc(-c2cccc3c2-c2ccccc2C3(O)C(F)(F)F)no1 (centres unmarked) [compound 274] | > 1000 | 7490 | – | –
27 | OCCCn1cc(-c2cccc3c2-c2ccccc2C3(O)C(F)(F)F)cn1 (centres unmarked) [compound 436] | < 100 | 65 | – | –
28 | NC(=O)CCOc1ccc2c(c1)C(O)(C(F)(F)F)c1ccccc1-2 (centres unmarked) [compound 301] | > 1000 | 1590 | – | –
29 | OCCn1cc(-c2ccc3c(c2)C(O)(C(F)(F)F)c2cccc(CO)c2-3)cn1 (centres unmarked) [compound 590] | > 1000 | 5920 | – | –
30 | O=C(O)CCCCOc1cc(Cl)c2c(c1)C(O)(C(F)(F)F)c1ccccc1-2 (centres unmarked) [compound 384] | 100 to 1000 | 219 | – | –
31 | COC(=O)c1cc(Cl)c2c(c1)C(O)(C(F)(F)F)c1ccccc1-2 (centres unmarked) [compound 61] | 100 to 1000 | 294 | – | –
32 | CCn1cc(-c2cc(CO)c3c(c2)C(O)(C(F)(F)F)c2ccccc2-3)cn1 (centres unmarked) [compound 618] | – | 56 | – | < 100
33 | O=C(O)c1ccccc1-c1ccc2c(c1)C(O)(C(F)(F)F)c1ccccc1-2 (centres unmarked) [compound 180] | > 1000 | > 10000 | – | –
34 | Cc1cnc2c(c1)C(O)(C(F)(F)F)c1ccccc1-2 (centres unmarked) [compound 196] | 100 to 1000 | 475 | – | –
